Positions count from the first letter of the chain named.
Experiments:
Assay in all cases: titration with apoprotein, FMN absorbance or fluorescence
[1] = target: T1, FMN-binding domain (FMN domain) of flavocytochrome P450BM-3 (BM3) (Priestia megaterium, UniProt P14779, N538A)
T1 sequence (P14779 472-650 N538A): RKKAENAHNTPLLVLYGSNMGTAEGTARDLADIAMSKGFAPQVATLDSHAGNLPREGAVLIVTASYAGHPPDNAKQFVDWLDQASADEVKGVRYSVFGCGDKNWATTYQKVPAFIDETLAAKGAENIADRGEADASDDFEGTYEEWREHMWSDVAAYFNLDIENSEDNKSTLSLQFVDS

[2] = target: T2, FMN-binding domain (FMN domain) of flavocytochrome P450BM-3 (BM3) (Priestia megaterium, UniProt P14779, N538G)
T2 sequence (P14779 472-650 N538G): T1 sequence (P14779 472-650 N538A) with A67G

[3] = target: T3, FMN-binding domain (FMN domain) of flavocytochrome P450BM-3 (BM3) (Priestia megaterium, UniProt P14779, P541A)
T3 sequence (P14779 472-650 P541A): T1 sequence (P14779 472-650 N538A) with A67N, P70A

[4] = target: T4, FMN-binding domain (FMN domain) of flavocytochrome P450BM-3 (BM3) (Priestia megaterium, UniProt P14779, G539A/N538G)
T4 sequence (P14779 472-650 N538G/G539A): T1 sequence (P14779 472-650 N538A) with A67G, G68A

[5] = target: T5, FMN-binding domain (FMN domain) of flavocytochrome P450BM-3 (BM3) (Priestia megaterium, UniProt P14779, Y537R)
T5 sequence (P14779 472-650 Y537R): T1 sequence (P14779 472-650 N538A) with Y66R, A67N

[6] = target: T6, FMN-binding domain (FMN domain) of flavocytochrome P450BM-3 (BM3) (Priestia megaterium, UniProt P14779, P542A)
T6 sequence (P14779 472-650 P542A): T1 sequence (P14779 472-650 N538A) with A67N, P71A

[7] = target: T7, FMN-binding domain (FMN domain) of flavocytochrome P450BM-3 (BM3) (Priestia megaterium, UniProt P14779)
T7 sequence (P14779 472-650): T1 sequence (P14779 472-650 N538A) with A67N

[8] = target: T8, FMN-binding domain (FMN domain) of flavocytochrome P450BM-3 (BM3) (Priestia megaterium, UniProt P14779, G539A/N538A)
T8 sequence (P14779 472-650 N538A/G539A): T1 sequence (P14779 472-650 N538A) with G68A

[9] = target: T9, FMN-binding domain (FMN domain) of flavocytochrome P450BM-3 (BM3) (Priestia megaterium, UniProt P14779, Y537H)
T9 sequence (P14779 472-650 Y537H): T1 sequence (P14779 472-650 N538A) with Y66H, A67N

Cc1cc2nc3c(=O)[nH]c(=O)nc-3n(C[C@H](O)[C@H](O)[C@H](O)COP(=O)(O)O)c2cc1C [FMN]
Kd [1]: 30 ± 5 nM
Kd [2]: 30 ± 5 nM
Kd [3]: 43 ± 7 nM
Kd [4]: 400 ± 100 nM
Kd [5]: 2100 ± 600 nM
Kd [6]: 140 ± 33 nM
Kd [7]: 41 ± 18 nM
Kd [8]: 1000 ± 200 nM
Kd [9]: 350 ± 72 nM

From publication PMC2778857 (Biochemistry, 2009)
